Laboratory results from patent US8710065B2, “Tricyclic inhibitors of kinases” (AbbVie Inc., priority 2011, dated 2014).

Biological target: T1, GST-tagged-Wee1 kinase (Homo sapiens, UniProt P30291)
T1 construct: purchased Carnabio (Carna Biosciences) 05-177
Assay: Wee1 time-resolved fluorescence equilibrium binding assay (displacement of Oregon Green-labeled ATP-competitive kinase probe)
Conditions: read-out: Wee-1 inhibition (Ki)
Summary of the method: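 Ki values derive from competitive displacement, under equilibrium, of a fast-reversible ATP-site Oregon Green kinase probe from GST-tagged Wee1, detected by time-resolved fluorescence.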

T1 sequence (P30291 whole entry): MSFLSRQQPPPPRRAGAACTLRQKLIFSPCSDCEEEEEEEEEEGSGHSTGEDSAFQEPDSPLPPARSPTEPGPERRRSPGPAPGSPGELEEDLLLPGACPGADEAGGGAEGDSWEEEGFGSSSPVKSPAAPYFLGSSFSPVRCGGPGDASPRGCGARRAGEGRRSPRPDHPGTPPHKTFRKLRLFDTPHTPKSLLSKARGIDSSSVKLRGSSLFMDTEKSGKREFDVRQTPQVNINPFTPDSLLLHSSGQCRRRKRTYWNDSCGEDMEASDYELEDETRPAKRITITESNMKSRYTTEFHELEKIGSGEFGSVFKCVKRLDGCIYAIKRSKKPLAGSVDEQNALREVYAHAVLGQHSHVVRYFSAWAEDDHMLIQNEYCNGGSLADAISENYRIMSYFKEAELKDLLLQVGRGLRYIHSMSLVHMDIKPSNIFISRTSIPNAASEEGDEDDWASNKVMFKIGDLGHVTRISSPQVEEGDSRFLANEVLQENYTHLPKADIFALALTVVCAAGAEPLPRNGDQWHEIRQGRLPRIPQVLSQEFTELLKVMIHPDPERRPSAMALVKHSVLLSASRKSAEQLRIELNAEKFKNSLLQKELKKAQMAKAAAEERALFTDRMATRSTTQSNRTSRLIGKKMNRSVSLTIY

Row | Structure (SMILES) | Ki [nM]
1 | CN1CCN(c2ccc(Nc3ncc4c(=O)n(-c5ccccc5Cl)c5nccn5c4n3)cc2Cl)CC1 [Example 32, 2-{[3-chloro-4-(4-methylpiperazin-1-yl)phenyl]amino}-6-(2-chlorophenyl)imidazo[1,2-a]pyrimido[5,4-e]pyrimidin-5(6H)-one] | < 10
2 | CCN(CC)C1Cc2ccc(Nc3ncc4c(=O)n(-c5c(F)cccc5Cl)c5nccn5c4n3)cc2C1 (stereo not drawn) [Example 226, 6-(2-chloro-6-fluorophenyl)-2-{[2-(diethylamino)-2,3-dihydro-1H-inden-5-yl]amino}imidazo[1,2-a]pyrimido[5,4-e]pyrimidin-5(6H)-one] | < 10
3 | CN(C)C1Cc2ccc(Nc3ncc4c(=O)n(-c5c(F)cc(F)cc5Cl)c5nccn5c4n3)cc2C1 (stereo not drawn) [Example 188, 6-(2-chloro-4,6-difluorophenyl)-2-{[2-(dimethylamino)-2,3-dihydro-1H-inden-5-yl]amino}imidazo[1,2-a]pyrimido[5,4-e]pyrimidin-5(6H)-one] | < 10
4 | CC(=O)N1Cc2cc(Nc3ncc4c(=O)n(-c5c(Cl)cccc5Cl)c5nccn5c4n3)ccc2C(C)(C)C1 [Example 318, 2-[(2-acetyl-4,4-dimethyl-1,2,3,4-tetrahydroisoquinolin-7-yl)amino]-6-(2,6-dichlorophenyl)imidazo[1,2-a]pyrimido[5,4-e]pyrimidin-5(6H)-one] | < 10
5 | CN1CCN(c2ccc(Nc3ncc4c(=O)n(-c5ccccc5Cl)c5nncn5c4n3)cc2)CC1 [Example 26, 6-(2-chlorophenyl)-2-{[4-(4-methylpiperazin-1-yl)phenyl]amino}pyrimido[5,4-e][1,2,4]triazolo[4,3-a]pyrimidin-5(6H)-one] | 10 to 100
6 | Cc1cc(Nc2ncc3c(=O)n(-c4ccccc4Cl)c4nccn4c3n2)ccc1N1CCN(C)CC1 [Example 22, 6-(2-chlorophenyl)-2-{[3-methyl-4-(4-methylpiperazin-1-yl)phenyl]amino}imidazo[1,2-a]pyrimido[5,4-e]pyrimidin-5(6H)-one] | < 10
7 | CN(C)CCCN(C)c1ccc(Nc2ncc3c(=O)n(-c4ccccc4Cl)c4nccn4c3n2)cc1 [Example 261, 6-(2-chlorophenyl)-2-[(4-{[3-(dimethylamino)propyl](methyl)amino}phenyl)amino]imidazo[1,2-a]pyrimido[5,4-e]pyrimidin-5(6H)-one] | < 10
8 | CN1CCN(c2ccc(Nc3ncc4c(=O)n(-c5cccc(Cl)c5)c5nccn5c4n3)cc2)CC1 [Example 337, 6-(3-chlorophenyl)-2-{[4-(4-methylpiperazin-1-yl)phenyl]amino}imidazo[1,2-a]pyrimido[5,4-e]pyrimidin-5(6H)-one] | > 100
9 | CC1(C)CN(Cc2ccc(-n3ccnc3)cc2)Cc2cc(Nc3ncc4c(=O)n(-c5ccccc5Cl)c5nccn5c4n3)ccc21 [Example 163, 6-(2-chlorophenyl)-2-({2-[4-(1H-imidazol-1-yl)benzyl]-4,4-dimethyl-1,2,3,4-tetrahydroisoquinolin-7-yl}amino)imidazo[1,2-a]pyrimido[5,4-e]pyrimidin-5(6H)-one] | < 10
10 | COc1cc(N2CCN(C)CC2)ccc1Nc1ncc2c(=O)n(-c3ccccc3Cl)c3nccn3c2n1 [Example 17, 6-(2-chlorophenyl)-2-{[2-methoxy-4-(4-methylpiperazin-1-yl)phenyl]amino}imidazo[1,2-a]pyrimido[5,4-e]pyrimidin-5(6H)-one] | > 100
11 | O=C1CCC(c2ccc(Nc3ncc4c(=O)n(-c5c(Cl)cccc5Cl)c5nccn5c4n3)cc2)=NN1 [Example 180, 6-(2,6-dichlorophenyl)-2-{[4-(6-oxo-1,4,5,6-tetrahydropyridazin-3-yl)phenyl]amino}imidazo[1,2-a]pyrimido[5,4-e]pyrimidin-5(6H)-one] | < 10
12 | CC1(C)CN(Cc2cc(F)cc(C(F)(F)F)c2)Cc2cc(Nc3ncc4c(=O)n(-c5ccccc5Cl)c5nccn5c4n3)ccc21 [Example 358, 6-(2-chlorophenyl)-2-({2-[3-fluoro-5-(trifluoromethyl)benzyl]-4,4-dimethyl-1,2,3,4-tetrahydroisoquinolin-7-yl}amino)imidazo[1,2-a]pyrimido[5,4-e]pyrimidin-5(6H)-one] | 10 to 100
13 | O=c1c2cnc(Nc3ccc(-c4cn[nH]c4)cc3)nc2n2ccnc2n1-c1ccccc1Cl [Example 43, 6-(2-chlorophenyl)-2-{[4-(1H-pyrazol-4-yl)phenyl]amino}imidazo[1,2-a]pyrimido[5,4-e]pyrimidin-5(6H)-one] | 10 to 100
14 | O=c1c2cnc(Nc3ccc(N4CC5CNCC5C4)cc3)nc2n2ccnc2n1-c1ccccc1Cl (stereo not drawn) [Example 292, 6-(2-chlorophenyl)-2-{[4-(hexahydropyrrolo[3,4-c]pyrrol-2(1H)-yl)phenyl]amino}imidazo[1,2-a]pyrimido[5,4-e]pyrimidin-5(6H)-one] | < 10
15 | CC(C)NCCOc1ccc(Nc2ncc3c(=O)n(-c4ccccc4Cl)c4nccn4c3n2)cc1Cl [Example 86, 6-(2-chlorophenyl)-2-({3-chloro-4-[2-(propan-2-ylamino)ethoxy]phenyl}amino)imidazo[1,2-a]pyrimido[5,4-e]pyrimidin-5(6H)-one] | < 10
16 | O=c1c2cnc(Nc3ccc(N4CCN5CCC[C@@H]5C4)cc3)nc2n2ccnc2n1-c1c(F)cccc1Cl [Example 244, 6-(2-chloro-6-fluorophenyl)-2-({4-[(8aR)-hexahydropyrrolo[1,2-a]pyrazin-2(1H)-yl]phenyl}amino)imidazo[1,2-a]pyrimido[5,4-e]pyrimidin-5(6H)-one] | < 10
17 | COC(=O)c1ccc(Nc2ncc3c(=O)n(-c4c(Cl)cccc4Cl)c4nccn4c3n2)cc1 [Example 216, methyl 4-{[6-(2,6-dichlorophenyl)-5-oxo-5,6-dihydroimidazo[1,2-a]pyrimido[5,4-e]pyrimidin-2-yl]amino}benzoate] | < 10
18 | N#CCCN1CCN(c2ccc(Nc3ncc4c(=O)n(-c5ccccc5Cl)c5nccn5c4n3)cc2)CC1 [Example 232, 3-[4-(4-{[6-(2-chlorophenyl)-5-oxo-5,6-dihydroimidazo[1,2-a]pyrimido[5,4-e]pyrimidin-2-yl]amino}phenyl)piperazin-1-yl]propanenitrile] | 10 to 100
19 | CC(C)NCCN(c1ccc(Nc2ncc3c(=O)n(-c4ccccc4Cl)c4nccn4c3n2)cc1)C(C)C [Example 271, 6-(2-chlorophenyl)-2-[(4-{propan-2-yl[2-(propan-2-ylamino)ethyl]amino}phenyl)amino]imidazo[1,2-a]pyrimido[5,4-e]pyrimidin-5(6H)-one] | < 10
20 | O=c1c2cnc(Nc3ccc(Cn4cccn4)cc3)nc2n2ccnc2n1-c1ccccc1Cl [Example 88, 6-(2-chlorophenyl)-2-{[4-(1H-pyrazol-1-ylmethyl)phenyl]amino}imidazo[1,2-a]pyrimido[5,4-e]pyrimidin-5(6H)-one] | < 10
21 | O=c1c2cnc(Nc3ccc4c(c3)CNCC4)nc2n2ccnc2n1-c1c(Cl)cccc1Cl [Example 111, 6-(2,6-dichlorophenyl)-2-(1,2,3,4-tetrahydroisoquinolin-7-ylamino)imidazo[1,2-a]pyrimido[5,4-e]pyrimidin-5(6H)-one] | < 10
22 | CC1(C)CNCc2cc(Nc3ncc4c(=O)n(-c5c(F)cccc5Cl)c5nccn5c4n3)ccc21 [Example 159, 6-(2-chloro-6-fluorophenyl)-2-[(4,4-dimethyl-1,2,3,4-tetrahydroisoquinolin-7-yl)amino]imidazo[1,2-a]pyrimido[5,4-e]pyrimidin-5(6H)-one] | 10 to 100
23 | O=C(O)c1ccc(Nc2ncc3c(=O)n(-c4ccccc4Cl)c4nccn4c3n2)cc1 [Example 342, 4-{[6-(2-chlorophenyl)-5-oxo-5,6-dihydroimidazo[1,2-a]pyrimido[5,4-e]pyrimidin-2-yl]amino}benzoic acid] | > 100
24 | O=c1c2cnc(Nc3ccc4c(c3)CNCC43CC3)nc2n2ccnc2n1-c1c(F)cccc1Cl [Example 228, 6-(2-chloro-6-fluorophenyl)-2-(2′,3′-dihydro-1′H-spiro[cyclopropane-1,4′-isoquinolin]-7′-ylamino)imidazo[1,2-a]pyrimido[5,4-e]pyrimidin-5(6H)-one] | < 10
25 | CC(=O)N1Cc2cc(Nc3ncc4c(=O)n(-c5c(Cl)cc(F)cc5Cl)c5nccn5c4n3)ccc2C2(CC2)C1 [Example 165, 2-[(2′-acetyl-2′,3′-dihydro-1′H-spiro[cyclopropane-1,4′-isoquinolin]-7′-yl)amino]-6-(2,6-dichloro-4-fluorophenyl)imidazo[1,2-a]pyrimido[5,4-e]pyrimidin-5(6H)-one] | < 10
26 | O=C1CNCCN1c1ccc(Nc2ncc3c(=O)n(-c4c(Cl)cccc4Cl)c4nccn4c3n2)cc1 [Example 174, 6-(2,6-dichlorophenyl)-2-{[4-(2-oxopiperazin-1-yl)phenyl]amino}imidazo[1,2-a]pyrimido[5,4-e]pyrimidin-5(6H)-one] | < 10
27 | COc1cc(Nc2ncc3c(=O)n(-c4ccccc4Cl)c4nccn4c3n2)ccc1OCCNC(C)C [Example 85, 6-(2-chlorophenyl)-2-({3-methoxy-4-[2-(propan-2-ylamino)ethoxy]phenyl}amino)imidazo[1,2-a]pyrimido[5,4-e]pyrimidin-5(6H)-one] | < 10
28 | Cc1cc(Nc2ncc3c(=O)n(-c4ccccc4Cl)c4nccn4c3n2)ccc1N1CCNCC1 [Example 104, 6-(2-chlorophenyl)-2-{[3-methyl-4-(piperazin-1-yl)phenyl]amino}imidazo[1,2-a]pyrimido[5,4-e]pyrimidin-5(6H)-one] | < 10
29 | N#Cc1cccc(CN2CCN(c3ccc(Nc4ncc5c(=O)n(-c6ccccc6Cl)c6nccn6c5n4)cc3)CC2)c1 [Example 31, 3-{[4-(4-{[6-(2-chlorophenyl)-5-oxo-5,6-dihydroimidazo[1,2-a]pyrimido[5,4-e]pyrimidin-2-yl]amino}phenyl)piperazin-1-yl]methyl}benzonitrile] | 10 to 100
30 | CN1CCN(c2ccc(Nc3ncc4c(=O)n(-c5cccc(F)c5)c5nccn5c4n3)cc2)CC1 [Example 336, 6-(3-fluorophenyl)-2-{[4-(4-methylpiperazin-1-yl)phenyl]amino}imidazo[1,2-a]pyrimido[5,4-e]pyrimidin-5(6H)-one] | 10 to 100
